Assay [1] relates to A549. Description: cells. The following applies: Homo sapiens, A549, 72 h.
Description: Antiproliferative activity against human A549 cells assessed as inhibition of cell proliferation incubated for 72 hrs by MTT assay
The test system of assay [2] is MDA-MB-231. Description: cells. The following applies: Homo sapiens, MDA-MB-231, 72 h.
Description: Antiproliferative activity against human MDA-MB-231 cells assessed as inhibition of cell proliferation incubated for 72 hrs by MTT assay
Assay [3] addresses T1, Focal adhesion kinase 1 (Homo sapiens, UniProt Q05397). Description: Inhibition of FAK (unknown origin) incubated for 50 mins in presence of substrate/ATP by HTRF assay. For orientation: TR-FRET usually uses a lanthanide donor and a delayed reading to cut background.
Assay [4] has as its target T1, Focal adhesion kinase 1. Description: Inhibition of GST-fused FAK (411 to 686 residues)(unknown origin) expressed in baculovirus expression system using poly(Glu:Tyr) as substrate incubated for 5 mins in presence of ATP by K-LISA screening assay.

Each structure is given as a SMILES string.

T1 sequence (Q05397 whole entry, the tested form may be a part): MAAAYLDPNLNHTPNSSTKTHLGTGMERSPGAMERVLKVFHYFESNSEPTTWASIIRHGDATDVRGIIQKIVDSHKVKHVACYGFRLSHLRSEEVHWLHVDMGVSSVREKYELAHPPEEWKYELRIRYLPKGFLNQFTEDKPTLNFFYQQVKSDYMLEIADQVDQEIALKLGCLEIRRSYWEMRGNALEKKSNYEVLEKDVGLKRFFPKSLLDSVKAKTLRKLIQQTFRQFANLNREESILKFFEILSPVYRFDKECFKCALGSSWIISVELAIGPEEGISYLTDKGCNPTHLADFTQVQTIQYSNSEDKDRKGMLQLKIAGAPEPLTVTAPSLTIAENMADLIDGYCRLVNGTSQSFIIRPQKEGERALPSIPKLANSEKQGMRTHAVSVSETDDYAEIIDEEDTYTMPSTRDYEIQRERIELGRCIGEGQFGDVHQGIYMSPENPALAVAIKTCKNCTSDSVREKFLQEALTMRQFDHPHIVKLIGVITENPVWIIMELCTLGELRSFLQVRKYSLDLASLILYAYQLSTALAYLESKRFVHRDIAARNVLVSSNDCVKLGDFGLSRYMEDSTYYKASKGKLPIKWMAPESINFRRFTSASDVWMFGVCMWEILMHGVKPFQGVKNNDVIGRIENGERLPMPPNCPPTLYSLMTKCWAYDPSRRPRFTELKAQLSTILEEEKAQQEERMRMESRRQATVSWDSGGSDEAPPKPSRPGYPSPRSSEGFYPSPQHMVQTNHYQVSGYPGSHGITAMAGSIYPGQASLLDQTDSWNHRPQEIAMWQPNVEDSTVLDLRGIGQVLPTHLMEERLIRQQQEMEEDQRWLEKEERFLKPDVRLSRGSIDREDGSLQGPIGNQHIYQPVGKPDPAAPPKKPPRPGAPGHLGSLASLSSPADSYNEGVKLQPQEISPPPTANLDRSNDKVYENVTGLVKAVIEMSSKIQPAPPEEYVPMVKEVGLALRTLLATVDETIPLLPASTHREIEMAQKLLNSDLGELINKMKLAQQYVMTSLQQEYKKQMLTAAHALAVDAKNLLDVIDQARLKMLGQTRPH

In the case of `CNC(=O)c1ccccc1Nc1nc(Nc2ccc(N3CCOCC3)cc2OC)ncc1Cl`, the IC50 in assay [1] worked out at 4.24 µM; in assay [2] it was 1.02 µM.
Consider `COc1cc(C(=O)NC2CCC(O)CC2)ccc1Nc1ncc(Cl)c(Nc2ccccc2P(C)(C)=O)n1` (centres undefined), for which the IC50 in assay [3] amounted to 0.0157 µM; in assay [1], 1.4 µM; in assay [2], 2.49 µM.
Take `Cc1cc(C(=O)NC2CCNCC2)ccc1Nc1ncc(Cl)c(Nc2ccccc2P(C)(C)=O)n1`: the IC50 in assay [3] was 0.0288 µM.
Regarding `CNC(=O)c1ccccc1Nc1nc(Nc2ccc(N3CCOCC3)cc2OC)ncc1C(F)(F)F`, the IC50 in assay [4] was determined as 0.0015 µM.
`CNC1CCN(C(=O)c2ccc(Nc3ncc(Cl)c(Nc4ccccc4P(C)(C)=O)n3)cc2)CC1`: in assay [3], the IC50 was 0.413 µM.
On to `CP(C)(=O)c1ccccc1Nc1nc(Nc2ccc(C(=O)NC3CCC(O)CC3)cc2)ncc1Cl` (centres undefined), for which the results for the IC50 in assay [3], in assay [1] and in assay [2] were 0.0096 µM, 0.11 µM and 0.86 µM, respectively.
As to `CN(C(=O)c1ccc(Nc2ncc(Cl)c(Nc3ccccc3P(C)(C)=O)n2)cc1)C1CCCNC1` (centres undefined), the IC50 in assay [3] was 0.163 µM.
Take `CP(C)(=O)c1ccccc1Nc1nc(Nc2ccc(C(=O)NC3CCNCC3)cc2)ncc1Cl`: the IC50 in assay [3] amounted to 0.0087 µM; in assay [1] it was 2.3 µM; in assay [2], 1.62 µM.
Turning to `CN(C(=O)c1ccc(Nc2ncc(Cl)c(Nc3ccccc3P(C)(C)=O)n2)cc1)C1CCNCC1`, the IC50 in assay [3] stood at 0.119 µM.
Take `CP(C)(=O)c1ccccc1Nc1nc(Nc2ccc(C(=O)N3CCC[C@@H](N)C3)cc2)ncc1Cl`: the IC50 in assay [3] came to 0.24 µM.
Consider `CP(C)(=O)c1ccccc1Nc1nc(Nc2ccc(C(=O)N[C@@H]3CCNC3)cc2)ncc1Cl`, for which the IC50 came out at 0.0167 µM in assay [3], 2.23 µM in assay [1] and 2.12 µM in assay [2].
As to `CP(C)(=O)c1ccccc1Nc1nc(Nc2ccc(C(=O)NC3CCC(O)CC3)cc2F)ncc1Cl` (centres undefined), in assay [3], the IC50 was 0.0175 µM.
In the case of `Cc1cc(C(=O)NC2CCC(O)CC2)ccc1Nc1ncc(Cl)c(Nc2ccccc2P(C)(C)=O)n1` (centres undefined), in assay [3], the IC50 was 0.0317 µM.
Turning to `Cc1cc(Nc2ncc(Cl)c(Nc3ccccc3P(C)(C)=O)n2)ccc1C(=O)NC1CCC(O)CC1` (centres undefined), the IC50 in assay [3] was 0.0103 µM; in assay [1], 0.52 µM; in assay [2], 7.53 µM.
Regarding `CP(C)(=O)c1ccccc1Nc1nc(Nc2ccc(C(=O)N3CCC(N4CCOCC4)CC3)cc2)ncc1Cl`, the IC50 in assay [3] stood at 0.149 µM.
In the case of `CP(C)(=O)c1ccccc1Nc1nc(Nc2ccc(C(=O)N3CCOCC3)cc2)ncc1Cl`, the IC50 in assay [3] turned out to be 0.356 µM.
Still for that read-out and setting: the result for `CP(C)(=O)c1ccccc1Nc1nc(Nc2ccc(C(=O)N3CCNCC3)cc2)ncc1Cl` reads 0.328 µM.
Regarding `CP(C)(=O)c1ccccc1Nc1nc(Nc2ccc(C(=O)NCC3CCNCC3)cc2)ncc1Cl`, the IC50 in assay [3] is 0.0197 µM.
Turning to `COc1cc(C(=O)NC2CCNCC2)ccc1Nc1ncc(Cl)c(Nc2ccccc2P(C)(C)=O)n1`, the IC50 in assay [3] came out at 0.0067 µM; in assay [1], 1.41 µM; in assay [2] it was 1.34 µM.
Take `CP(C)(=O)c1ccccc1Nc1nc(Nc2ccc(C(=O)N3CCC[C@H](N)C3)cc2)ncc1Cl`: in assay [3], the half-inhibitory concentration (IC50) turned out to be 0.361 µM.
`Cc1cc(Nc2ncc(Cl)c(Nc3ccccc3P(C)(C)=O)n2)ccc1C(=O)NC1CCNCC1`: the IC50 in assay [3] came to 0.0319 µM.
Regarding `CP(C)(=O)c1ccccc1Nc1nc(Nc2ccc(C(=O)NC3CCNCC3)cc2F)ncc1Cl`, the IC50 in assay [3] stood at 0.0275 µM.
Consider `CP(C)(=O)c1ccccc1Nc1nc(Nc2ccc(C(=O)NC3CCNCC3)c(F)c2)ncc1Cl`, for which the IC50 in assay [3] amounted to 0.0158 µM; in assay [1] it was 2.65 µM; in assay [2], 8.69 µM.
For `CP(C)(=O)c1ccccc1Nc1nc(Nc2ccc(C(=O)NC3CCC(O)CC3)c(F)c2)ncc1Cl` (centres undefined) the same measures were 0.0152 µM, 0.39 µM and 2.48 µM.
On to `CP(C)(=O)c1ccccc1Nc1nc(Nc2ccc(C(=O)N[C@H]3CCNC3)cc2)ncc1Cl`, for which the IC50 in assay [3] was 0.0143 µM; in assay [1] it was 2.21 µM; in assay [2], 2.35 µM.

Usually IC50 stands for the concentration that inhibits the measured activity by half.

These data come from ChEMBL document CHEMBL5329207, “Design, synthesis, and biological evaluation of diaminopyrimidine derivatives as novel focal adhesion kinase inhibitors” (RSC Med Chem, 2023).
